According to patent US8557526B2, “Synaptotagmin and collapsin response mediator protein as biomarkers for traumatic brain injury” (University of Florida Research Foundation, Inc., priority 2007, dated 2013):

Tests used:
[1] = tested on: rat cerebrocortical cultures; experiment: Synaptotagmin-1 fragmentation and vesicle organization in neurotoxin-challenged neuronal cultures; format: cell-based; conditions: for organization of synaptotagmin-coupled vesicles: cerebrocortical neurons and cerebellar granule neurons; for fragmentation of 65 kDa synaptotagmin-1 protein (33-36 kDa N-terminal fragments): oncotic, apoptotic and excitotoxic challenge
Method: Cerebrocortical cells harvested from 1-day old Sprague-Dawley rat brains were plated on poly-L-lysine coated on 6-well culture plates (Erie Scientific, Portsmouth, N.H., USA) at a density of 4.36×10^5 cells/mL. Cultures were maintained in Dulbecco's modified Eagle's medium (DMEM) with 10% fetal bovine serum in a humidified incubator in an atmosphere of 10% CO2 at 37° C. After 5 days in culture, the media were changed to DMEM with 5% horse serum. Subsequent media changes were performed three times a week. Experiments were performed on days 10 to 11 in vitro when astroglia had formed a confluent monolayer beneath morphologically mature neurons.
Cerebrocortical cultures (12-day-old) from above were washed three times with serum-free MEM.
After electrotransfer, blotting membranes were blocked for 1 hour at ambient temperature in 5% non-fat milk in TBS and 0.05% […] (TBST), then incubated in primary monoclonal synaptotagmin-1 antibody (BD Cat# 610434) in TBST with 5% milk at 1/50 dilution as recommended by the manufacturer at 4° C. overnight, followed by three washes with TBST and a 2 hour incubation at ambient temperature with a secondary antibody linked to biotinylated secondary antibody (Amersham, Cat # RPN1177v1) followed by a 30 min incubation with strepavidin-conjugated alkaline phosphatase (calorimetric method). Colorimetric development was performed with a one-step BCIP NBT reagent (KPL, Cat # 50-81-08). Molecular weights of intact synaptotagmin-1 protein and their potential breakdown products (BDPs) were assessed by running along side rainbow colored molecular weight standards (Amersham, Cat # RPN800V).

primary cortical neurons [2] = experiment: CRMP immunoblot after neurotoxin treatment of primary cortical neurons, with or without protease inhibitors; format: cell-based, rat; conditions: for CRMP5 after neurotoxin / intact CRMP1 and CRMP4 after neurotoxin: NMDA 200 μM 6 hours, maitotoxin 3 nM 3 hours; for integrity of intact CRMP2 / appearance of 55 kDa BDP after neurotoxin: NMDA 200 μM, MTX, STS 0.5 μM, EDTA 5 mM; for STS-mediated generation of the 55 kDa CRMP2 BDP (effect of inhibitor): STS 0.5 μM challenge, primary cortical neurons; for formation of the 55 kDa CRMP2 BDP after NMDA treatment (effect of inhibitor pretreatment): pretreatment of primary cortical culture
Method: Primary cortical neurons from first post-natal day Sprague-Dawley rat brains were plated on poly-L-lysine coated culture plates (Erie Scientific, Portsmouth, N.H., U.S.A.). Cells were dissociated with trypsin and DNase I, re-suspended in 10% plasma-derived horse serum (PDHS) in Dulbecco's modified Eagle's medium (DMEM), and plated on poly-L-lysine treated 35 mm (density: 3.0×10^6 cells per well) plates. Cells were allowed to grow in an atmosphere of 10% CO2 at 37° C. for three days and then treated with 1 μM 4-amino-6-hydrazino-7-β-D-ribofuranosyl-7H-pyrrolo (2,3-d)-pyrimidine-5-carboxamide (ARC) for two days. The ARC was removed and fresh 10% PDHS was added in DMEM, after which the cells were grown for an additional 10-14 days.
Protein concentrations of cell or tissue lysates were determined via Bio-Rad DC Protein Assay (Bio-Rad, Hercules, Calif.). Protein balanced samples were prepared for sodium dodecyl sulfate-polyacrylamide gel electrophoresis (SDS-PAGE) in a two-fold loading buffer containing 0.25 M Tris (pH 6.8), 0.2 M DTT, 8% SDS, 0.02% bromophenol blue, and 20% glycerol in distilled water. Samples were heated for 90 seconds at 90° C. and centrifuged for 2 minutes. Twenty micrograms (20 μg) of protein per lane were routinely resolved by SDS-PAGE on Tris-glycine gels for 2 hours at 130V. Following electrophoresis, separated proteins were laterally transferred to polyvinylidene fluoride (PVDF) membranes in a transfer buffer containing 39 mM glycine and 48 mM Tris-HCl (pH 8.3) 5% methanol at a constant voltage of 20 V for 2 hours at ambient temperature in a semi-dry transfer unit (Bio-Rad) by the semi-dry method.
Rat CRMP5 antibody (targeting to residues 369-564, Chemicon, Temecula, Calif.) was dialyzed with PBS using Slide-A-Lyzer MINI Dialysis Units, (Pierce, 3.5MWCO, 69550, Rockford, Ill.). Then CRMP5 was biotinylated by using EZ-link, sulfo-NHS-LC-LC-biotin by following the manufacture's instructions. Membranes were blotted either with anti-CRMP-1, or -4 (targeting residues 499-511, Chemicon), biotinylated-anti-CRMP5 antibodies or anti-CRMP2 (C4G) or a C-terminal anti-CRMP2 antibody raised against a synthetic peptides of residues 551-559), and developed with biotin and avidin-conjugated alkaline phosphatase (this step was skipped in CRMP5 blotting) and nitroblue tetrazolium and 5-bromo-4-chloro-3-indolyl phosphate. Quantitative evaluation of protein levels was performed via computer-assisted densitometric scanning (NIH Image J V.1.6 software).

primary cortical neurons [3] = experiment: LDH release assay of NMDA induced neuronal cell injury; format: cell-based, rat; conditions: for protection against NMDA induced neuronal cell injury (LDH release): time course, protection within 6 hours
Method: LDH release assays were performed to determine the role of calpain and caspase inhibition on NMDA induced neuronal cell injury, and to draw a link with CRMP2 degradation. The release of LDH, normally present in the cytoplasm of neurons, into the cell culture media can be used as a measure of dying cells.

calpain = target: T1, calpain (Rattus norvegicus, UniProt Q07009); experiment: In vitro calpain digestion of naïve brain lysate (CRMP2 immunoblot); format: biochemical; conditions: pretreatment of naïve lysate
T1 construct: purchased Calbiochem
T1 sequence (Q07009 20-700 limits assumed): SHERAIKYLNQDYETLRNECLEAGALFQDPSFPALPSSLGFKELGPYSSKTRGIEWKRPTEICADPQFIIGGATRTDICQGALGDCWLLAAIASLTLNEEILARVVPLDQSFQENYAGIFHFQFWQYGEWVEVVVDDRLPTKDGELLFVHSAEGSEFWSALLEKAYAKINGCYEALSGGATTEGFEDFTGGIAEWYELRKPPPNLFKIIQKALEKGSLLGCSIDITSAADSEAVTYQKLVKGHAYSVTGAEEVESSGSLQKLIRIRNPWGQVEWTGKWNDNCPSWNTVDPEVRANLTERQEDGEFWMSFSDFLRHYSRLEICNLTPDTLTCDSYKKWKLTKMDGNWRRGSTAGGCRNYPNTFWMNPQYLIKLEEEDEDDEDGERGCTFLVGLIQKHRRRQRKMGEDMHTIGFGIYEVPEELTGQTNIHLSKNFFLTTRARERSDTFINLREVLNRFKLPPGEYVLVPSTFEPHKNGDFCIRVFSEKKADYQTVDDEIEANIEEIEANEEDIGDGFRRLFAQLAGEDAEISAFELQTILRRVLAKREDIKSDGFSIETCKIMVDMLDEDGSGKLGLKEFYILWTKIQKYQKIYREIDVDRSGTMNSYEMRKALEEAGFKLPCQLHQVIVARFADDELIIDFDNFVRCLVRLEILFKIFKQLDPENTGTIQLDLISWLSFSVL
T1 sequence (Q64537 88-270 partner limits assumed): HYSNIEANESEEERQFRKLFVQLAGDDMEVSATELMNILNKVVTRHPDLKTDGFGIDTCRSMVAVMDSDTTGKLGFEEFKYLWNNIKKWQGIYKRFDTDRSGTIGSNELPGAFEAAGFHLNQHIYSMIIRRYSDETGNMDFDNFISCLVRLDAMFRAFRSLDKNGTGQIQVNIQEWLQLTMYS
Method: (§1) In vitro digestion of rat brain lysate (5 mg) was performed with the purified proteases human erythrocyte calpain-1, rat recombinant calpain-2 (Calbiochem, San Diego, Calif.) and recombinant human caspase-3 (Chemicon, Temecula, Calif.) in a buffer containing 100 mM Tris-HCl (pH 7.4) and 20 mM DTT. For calpain, 2 mM CaCl2 was also added, and then incubated at room temperature for 30 minutes. For caspase-3, samples were incubated at 37° C. for four hours. Protease reactions were stopped by the addition of calpain inhibitor SJA6017 to a concentration of 30 μM (Senju Pharmaceuticals, Kobe, Japan) or pan-caspase inhibitor Z-VAD to a concentration of 20 μM and a protease inhibitor cocktail solution.
(§2) This example was to determine whether CRMP2 proteolysis was calpain mediated following TBI, similar to the proteolysis found in cell culture after neurotoxin treatment. […] The complete inhibition of calpain and caspase activity was confirmed by parallel monitoring of calpain and caspase associated αII-spectrin degradation. […] Therefore, calpain produced the 55 kDa CRMP-2 BDP, while caspase-3 was ruled out.

[4] = target: T2, recombinant human caspase-3 (Homo sapiens, UniProt P42574); experiment: In vitro caspase-3 digestion of naïve brain lysate (CRMP2 immunoblot); format: biochemical
T2 construct: purchased Chemicon
T2 sequence (P42574 29-175 limits assumed): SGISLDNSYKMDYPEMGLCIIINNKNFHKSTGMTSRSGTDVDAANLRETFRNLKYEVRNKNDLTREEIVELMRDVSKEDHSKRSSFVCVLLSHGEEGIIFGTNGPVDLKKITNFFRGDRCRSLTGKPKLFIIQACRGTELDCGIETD
T2 sequence (P42574 176-277 limits assumed): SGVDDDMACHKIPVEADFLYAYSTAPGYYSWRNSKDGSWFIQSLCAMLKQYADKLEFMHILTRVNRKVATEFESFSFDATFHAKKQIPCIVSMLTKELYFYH
Method: as §1, §2

Compound | organization of synaptotagmin-coupled vesicles [1] | fragmentation of 65 kDa synaptotagmin-1 protein (33-36 kDa N-terminal fragments) [1] | CRMP5 after neurotoxin (primary cortical neurons [2]) | intact CRMP1 and CRMP4 after neurotoxin (primary cortical neurons [2]) | integrity of intact CRMP2 / appearance of 55 kDa BDP after neurotoxin (primary cortical neurons [2]) | STS-mediated generation of the 55 kDa CRMP2 BDP (effect of inhibitor) (primary cortical neurons [2]) | formation of the 55 kDa CRMP2 BDP after NMDA treatment (effect of inhibitor pretreatment) (primary cortical neurons [2]) | protection against NMDA induced neuronal cell injury (LDH release) (primary cortical neurons [3]; NMDA treatment) | other results
C=CC[C@H](C)[C@H](C)C[C@@H](O)[C@H](O)[C@@H]1CC[C@@]2(C)O[C@@]3(C)C[C@@]4(C)O[C@H]5/C=C\C[C@H]6O[C@H]7C[C@H]8O[C@H]9C[C@@]%10(C)O[C@@](C)([C@@H]%11CC[C@H]%12O[C@@]%13(C)C[C@H]%14O[C@@]%15(C)C[C@H]%16O[C@@]%17(C)C[C@@H](O)[C@H]([C@@H]%18O[C@H]%19[C@H](O)[C@@H](O)[C@H](C[C@H](O)C[C@@H](O)[C@@H]%20O[C@H]%21[C@H](O)[C@@H](O)[C@H]([C@@H]%22O[C@@H]%23[C@H](O)[C@H]%24O[C@H]%25C[C@H]%26O[C@@H](C[C@H](O)[C@@H](O)[C@H]%27O[C@H]%28[C@H](O)[C@H]%29O[C@H]%30C[C@H]%31O[C@H]%32[C@@H](O)[C@@H](O)[C@H]([C@H](C)[C@H](O)[C@H](C)CC[C@H](OS(=O)(=O)O)[C@H](O)[C@H](C)C[C@@H](O)C(=C)/C(C)=C/CO)O[C@@H]%32[C@H](O)C[C@]%31(C)O[C@@H]%30C[C@]%29(C)O[C@@H]%28C[C@H]%27O)[C@H](OS(=O)(=O)O)[C@H](O)[C@@H]%26O[C@@H]%25C[C@@H]%24O[C@H]%23[C@H](O)[C@H]%22O)O[C@H]%21C[C@H]%20O)O[C@H]%19C[C@H]%18O)O[C@@H]%17[C@H](O)[C@]%16(C)O[C@@H]%15CC[C@]%14(C)O[C@@H]%13C[C@@H]%12O%11)[C@H](O)C[C@@H]%10O[C@]9(C)CC[C@]8(C)O[C@]7(C)C[C@@H]6O[C@@H]5C[C@@H]4O[C@@H]3C[C@@H]2O1 [MTX, maitotoxin] | extensive disorganization | fragmented by calpain into N-terminal fragments | no remarkable change | Decrease of CRMP1 and CRMP4 |  |  |  |  | 
CN[C@H](CC(=O)O)C(=O)O [NMDA, N-Methyl-D-Asparate] | extensive disorganization | fragmented by calpain into N-terminal fragments | no remarkable change | Decrease of CRMP1 and CRMP4 | marked reduction |  |  |  | time of appearance of the 55 kDa CRMP2 BDP (primary cortical neurons [2]; NMDA 200 μM time course): ≤ 3 h; neuron death (LDH release) (primary cortical neurons [3]; NMDA treatment, peaking at 24 hours): induced significant neuron death after a 3 hour induction
CC(C)C[C@@H](C=O)NC(=O)[C@@H](NS(=O)(=O)c1ccc(F)cc1)C(C)C [SJA6017] |  |  |  |  |  | effectively blocked | prevented the formation of the 55 kDa CRMP2 BDP | significant protection within 6 hours | formation of the 55 kDa CRMP-2 BDP by calpain in naïve brain lysate (effect of inhibitor) (calpain): blocked formation of the 55 kDa CRMP-2 BDP; protection of neurons from excitotoxic injury after 12 hours (primary cortical neurons [3]; preincubation with inhibitor, after 12 hours): did not effectively protect
CN[C@@H]1C[C@H]2O[C@@](C)([C@@H]1OC)n1c3ccccc3c3c4c(c5c6ccccc6n2c5c31)C(=O)NC4 [STS, staurosporine] |  | fragmented by calpain into N-terminal fragments |  |  | rapidly degraded to the 55 kDa BDP |  |  |  | 
Z-VAD |  |  |  |  |  | offered no protection | not | no protection | 66 kDa intact CRMP2 band after caspase-3 treatment with inhibitor [4]: did completely disappear
